The source of these data is patent US20260198495A1, “BINARY INSECTICIDE COMPOSITION AND USE THEREOF” (SHENYANG SINOCHEM AGROCHEMICALS R & D CO., LTD., priority 2022, published 2026).

Data set [1] relates to Aphis craccivora nymphs. Kind of data set: Synergism screening (Bliss) of I-72 + pyrethroid insecticides, Example 38, Table 38. It is filed as in vivo. Conditions: for mortality at 0.15 µg/mL / mortality at 2 µg/mL / mortality at 3 µg/mL / mortality at 0.3 µg/mL / mortality at 1 µg/mL: Aphis craccivora, in Vicia faba, 48 h; for mortality at 0.15 µg/mL: read-out: Measured mortality rate (%), single pesticide, concentration 0.15 mg/L, broad bean seedling spraying; for mortality at 2 µg/mL: read-out: Measured mortality rate (%), single pesticide, concentration 2 mg/L, broad bean seedling spraying; for mortality at 3 µg/mL: read-out: Measured mortality rate (%), single pesticide, concentration 3 mg/L, broad bean seedling spraying; for Measured mortality rate (%): single pesticide, broad bean seedling spraying, 48 hours; for mortality at 0.3 µg/mL: read-out: Measured mortality rate (%), single pesticide, concentration 0.3 mg/L, broad bean seedling spraying; for mortality at 1 µg/mL: read-out: Measured mortality rate (%), single pesticide, concentration 1 mg/L, broad bean seedling spraying. The procedure: Test target: Aphis craccivora nymphs, a sensitive strain reared indoors.
(§1) Preparation of the pesticide solution: according to different test requirements, the test samples were accurately weighed respectively with an electronic analytical balance. The technical pesticides were dissolved in acetone, and then diluted with 0.1% Tween 80 water into a series of pesticide solutions with a certain concentration gradient according to the experimental design dosage.
Experimental method: first, broad bean seedlings with uniform and consistent Aphis craccivora were selected, with about 30-40 insects on each seedling. Then, they were evenly sprayed with the pesticide solution in the order from low dosage to high dosage according to the experimental design, with 1.5 mL of the solution for each leaf and 3 replicates for each treatment. In addition, a blank control (CK) was set up.
The treated test materials were placed in an observation room, and the temperature, humidity and illumination of the observation room could be adjusted as needed. The number of dead and alive insects was investigated 48 hours later, and the corrected mortality rate was calculated using the Abbott's formula.
The synergism of the mixture was evaluated by adopting the Bliss method, as in Example 5.

Data set [2] relates to 3rd-instar larvae of Yponomeuta evonymallus (Linnaeus). Kind of data set: Synergism screening (Bliss) of I-72 + pyrethroid insecticides, Example 37, Table 37. It is filed as in vivo. Conditions: single pesticide, leaf dipping, 72 hours. How it is done: Test target: 3rd-instar larvae of Yponomeuta evonymallus (Linnaeus).
as §1
Experimental method: Firstly, Hylotelephium spectabile leaves were selected and dipped into the prepared pesticide solutions for 10 s in the order from low dosage to high dosage according to the experimental design. After natural air-drying in the shade, they were placed in a 9-cm-diameter Petri dish with filter paper, and uniform and healthy test insects were introduced, with 10 insects for each treatment and 3 replicates for each treatment. In addition, a blank control (CK) was set up.
The treated test materials were placed in an observation room, and the temperature, humidity and illumination of the observation room could be adjusted as needed. The number of dead and alive insects was investigated 72 hours later, and the corrected mortality rate was calculated using the Abbott's formula.
The synergism of the mixture was evaluated by the Bliss method. According to the concept of independent joint action he proposed, Bliss believes that the theoretical mortality rate P when insecticides are used in combination can be calculated by the following formula: […]
Pm is the measured mortality rate (%) of the target when the first active ingredient is at a concentration of m; and Pn is the measured mortality rate (%) of the target when the second active ingredient is used at a concentration of n.
If the actual mortality rate of the target after the two active ingredients are mixed at a certain concentration is greater than theoretical mortality rate P, it is determined that the two active ingredients have a synergistic effect when used in combination at the set concentration, and otherwise, they have an antagonistic effect.

Consider `Cc1c(COC(=O)[C@@H]2[C@H](/C=C(\Cl)C(F)(F)F)C2(C)C)cccc1-c1ccccc1` (racemic) [Bifenthrin], for which, in data set [1], the mortality at 0.15 µg/mL is 10%, the mortality at 2 µg/mL came to 49.1% and the mortality at 3 µg/mL is 62%.

Take `CC1(C)[C@H](C(=O)O[C@H](C#N)c2cccc(Oc3ccccc3)c2)[C@@H]1/C=C(\Cl)C(F)(F)F` (racemic) [Lambda-cyhalothrin]: the entries for the “Measured mortality rate (%)” value in data set [2] (concentration 0.25 mg/L), in data set [2] (concentration 2 mg/L) and in data set [2] (concentration 5 mg/L) were 16.1%, 39.3% and 53.3%, respectively.

Turning to `CC1(C)C(C=C(Cl)Cl)C1C(=O)OC(C#N)c1cccc(Oc2ccccc2)c1` (stereo not drawn) [Alpha-cypermethrin], the entries for the “Measured mortality rate (%)” value in data set [2] (concentration 0.5 mg/L), in data set [2] (concentration 1 mg/L) and in data set [2] (concentration 5 mg/L) were 9.1%, 19.4% and 43.8%, respectively.

For the compound `CC1(C)C(C=C(Cl)Cl)C1C(=O)OC(C#N)c1ccc(F)c(Oc2ccccc2)c1` (stereo not drawn) [Beta-cyfluthrin], the entries for the “Measured mortality rate (%)” value in data set [2] (concentration 0.5 mg/L), in data set [2] (concentration 1 mg/L) and in data set [2] (concentration 5 mg/L) were 12.9%, 21.4% and 51.6%, respectively.

On to `CC1(C)[C@H](C=C(Cl)Cl)[C@H]1C(=O)O[C@@H](C#N)c1cccc(Oc2ccccc2)c1` [Beta-cypermethrin], for which the “Measured mortality rate (%)” value in data set [1] (concentration 0.3 mg/L) is reported as 16.1%; in data set [1] (concentration 1 mg/L), 49.7%.

Consider `CC1(C)C(C=C(Cl)Cl)C1C(=O)OC(C#N)c1ccc(F)c(Oc2ccccc2)c1` (stereo not shown) [Cyfluthrin], for which the “Measured mortality rate (%)” value is on record as 10.0% in data set [2] (concentration 0.5 mg/L), 18.8% in data set [2] (concentration 1 mg/L) and 48.4% in data set [2] (concentration 5 mg/L).

Turning to `CC1(C)C(C=C(Cl)Cl)C1C(=O)OC(C#N)c1cccc(Oc2ccccc2)c1` (stereo not shown) [Cypermethrin], in data set [1], the mortality at 0.15 µg/mL is 13.3% and the mortality at 2 µg/mL worked out at 60.9%.

As to `CC1(C)[C@H](C(=O)O[C@H](C#N)c2cccc(Oc3ccccc3)c2)[C@@H]1C=C(Br)Br` [Deltamethrin], in data set [1], the mortality at 0.3 µg/mL was 17.3%, the mortality at 1 µg/mL is 28% and the mortality at 3 µg/mL worked out at 61.4%.

In the case of `CC(C)[C@H](C(=O)O[C@H](C#N)c1cccc(Oc2ccccc2)c1)c1ccc(Cl)cc1` [Esfenvalerate], the “Measured mortality rate (%)” value in data set [2] (concentration 0.5 mg/L) is given as 9.4%; in data set [2] (concentration 1 mg/L) it was 13.8%; in data set [2] (concentration 5 mg/L) it was 40.0%.

Regarding `CCOc1ccc(C(C)(C)COCc2cccc(Oc3ccccc3)c2)cc1` [Etofenprox], in data set [1], the mortality at 0.15 µg/mL was found to be 14% and the mortality at 2 µg/mL worked out at 49.5%.

For `CC1(C)C(C(=O)OC(C#N)c2cccc(Oc3ccccc3)c2)C1(C)C` (stereo not shown) [Fenpropathrin], the “Measured mortality rate (%)” value is on record as 13.3% in data set [2] (concentration 0.5 mg/L), 22.6% in data set [2] (concentration 1 mg/L) and 40.7% in data set [2] (concentration 5 mg/L).

On to `CC(C)C(C(=O)OC(C#N)c1cccc(Oc2ccccc2)c1)c1ccc(Cl)cc1` (stereo not shown) [Fenvalerate], for which, in data set [1], the mortality at 0.3 µg/mL stood at 14.7%, the mortality at 1 µg/mL was 29% and the mortality at 3 µg/mL turned out to be 51.1%.

Regarding `CC1(C)[C@H](C(=O)O[C@H](C#N)c2cccc(Oc3ccccc3)c2)[C@@H]1/C=C(\Cl)C(F)(F)F` [Gamma-cyhalothrin], the entries for the “Measured mortality rate (%)” value in data set [2] (concentration 0.1 mg/L) and in data set [2] (concentration 5 mg/L) were 6.9% and 48.3%, respectively.

For `CC1(C)C(C=C(Cl)Cl)C1C(=O)OCc1cccc(Oc2ccccc2)c1` (stereo not shown) [Permethrin], in data set [1], the mortality at 0.3 µg/mL was 12%, the mortality at 1 µg/mL worked out at 25.3% and the mortality at 3 µg/mL came to 64.8%.

As for `CC1(C)[C@H](C=C(Cl)Cl)[C@H]1C(=O)O[C@H](C#N)c1cccc(Oc2ccccc2)c1` [Theta-cypermethrin], the “Measured mortality rate (%)” value in data set [2] (concentration 0.5 mg/L) turned out to be 10.3%; in data set [2] (concentration 1 mg/L) it was 16.7%; in data set [2] (concentration 5 mg/L), 46.4%.

Consider `CC1(C)C(C=C(Cl)Cl)C1C(=O)OC(C#N)c1cccc(Oc2ccccc2)c1` (stereo not shown) [Zeta-cypermethrin], for which the “Measured mortality rate (%)” value amounted to 17.1% in data set [1] (concentration 0.15 mg/L) and 64.5% in data set [1] (concentration 2 mg/L).

As for Pyrethrin, the results for the “Measured mortality rate (%)” value in data set [1] (concentration 0.3 mg/L), in data set [1] (concentration 1 mg/L) and in data set [1] (concentration 3 mg/L) were 15.6%, 25.6% and 63.0%, respectively.
